The test system of this assay is human peripheral blood mononuclear cells. Briefly: TNFα release from LPS-stimulated human peripheral blood mononuclear cells (TNFα screen). The assay is classed as cell-based. The settings on record: PBMC, 18 hours incubation, TNFα in supernatant by ELISA. How it is done: Venous blood is collected from healthy volunteers and the mononuclear cells purified by centrifugation through Histopaque (Ficoll) cushions. TNFα production from these cells is stimulated by addition of lipopolysaccharide. After 18 hours incubation in the presence of LPS, the cell supernatant is removed and the concentration of TNFα in the supernatant determined by ELISA. Addition of PDE4 inhibitors reduces the amount of TNFα produced. An IC50 is determined which is equal to the concentration of compound that gives 50% inhibition of TNFα production as compared to the LPS stimulated control wells.
On the technique in general: ELISA stands for enzyme-linked immunosorbent assay.

Broadly, the IC50 is the concentration that inhibits the measured activity by half. A higher IC50 goes with weaker potency in that assay. `Cc1ccc(C(=O)N[C@H]2CC[C@@H](NC(=O)c3cc(F)cnc3Oc3ccc4c(c3)SCC4)CC2)c(O)c1` [Example 3, Syn-2-(2,3-dihydro-benzo[b]thiophen-6-yloxy)-5-fluoro-N-[4-(2-hydroxy-4-methyl-benzoylamino)-cyclohexyl]-nicotinamide] yielded a half-inhibitory concentration (IC50) of 0.8 nM.
To `O=C(N[C@H]1CC[C@@H](NC(=O)c2cccn3ccnc23)CC1)c1cc(F)cnc1Oc1ccc2c(c1)SCC2` [Example 1, Syn-imidazo[1,2-a]pyridine-8-carboxylic acid (4-{[2-(2,3-dihydro-benzo[b]thiophen-6-yloxy)-5-fluoro-pyridine-3-carbonyl]-amino}-cyclohexyl)-amide] belongs 0.6 nM.

For the origin of these results see US7132435B2, “Compounds” (Pfizer Inc., priority 2003, dated 2006).
